Test results reported in patent publication US7432245B2, “Pharmaceutical formulation comprising a peptide angiogenesis inhibitor” (Abbott Laboratories Inc., priority 2002, dated 2008).
Structures can show the parent of a compound that is named as a salt. Where a SMILES comes first, the peptide text is derived from it. [ ]: non-standard residue; d: D form. Nva = CCC[C@H](N)C(=O)O; Sar = CNCC(=O)O

Assay: In vitro release from PLG gels into buffer at 37° C.
Assay type: physicochemical
Details: solution of 5% in 2:1 NMP/TA without PLG, 5 mM PBS buffer (pH 7.4), FIG. 1
Description: The samples of gel formulations of the acetate salt of formula (Ia) in PLG and NMP/TA were immersed in 5 mM PBS buffer (pH 7.4) and incubated at 37° C. At a predetermined time, 1 mL of the dissolution medium was withdrawn from the dissolution container, filtered, and assayed for the concentration of the acetate salt of formula (Ia) by HPLC. Fresh PBS buffer (1 mL) was added to replace the withdrawn medium.
The in vitro drug release of the acetate salt of formula (Ib) from the PLG gel formulations (IV) and (V) (from Example 6) was determined by the method described in Example 4.
The in vitro drug release profiles of PLG (24 KD) gel formulations were obtained by the methods described in Example 4.
Formulations of valproate (formulation VI), octanoate (formulation VII), and pivalate (formulation VIII) salts of the compound of formula (Ib) were prepared by substituting the appropriate salts (prepared as described in Example 1b) for the acetate salt in Example 6B. […] In addition, a formulation (formulation IX) that contained 6.0% pivalate salt of formula (Ib), 32.9% PLG (13 KD, 50:50 polymer ratio), 40.4% NMP and 20.7% TA was also prepared. The in vitro drug release profiles of formulations VI, VII, VIII, and IX were obtained by the methods described in Example 4 substituting 50 mM phosphate buffer (pH 7.4) for 5 mM PBS buffer. […]

## CCC[C@H](NC(=O)[C@@H](NC(=O)[C@H](NC(=O)[C@@H](NC(=O)CNC(=O)CN(C)C(C)=O)C(C)C)[C@H](C)CC)[C@@H](C)O)C(=O)N[C@H](C(=O)N[C@@H](CCCNC(=N)N)C(=O)N1CCC[C@H]1C(=O)NCC)[C@@H](C)CC [acetate salt of formula (Ia), N-Ac-Sar-Gly-Val-DIle-Thr-Nva-Ile-Arg-ProNHCH2CH3] (Ac-[Sar]GV[dI]T[Nva]IRP-NHEt)
  in vitro release profile: no sustained release
